Broadly, the IC50 is the midpoint of a concentration-inhibition curve. A word on the melting point: it is the temperature of the solid-liquid transition.

Molecules are shown by their SMILES.

The results in this text go back to paper PMC10178769, “A Facile Synthesis and Molecular Characterization of Certain New Anti-Proliferative Indole-Based Chemical Entities” (International Journal of Molecular Sciences, 2023).

In data set [1] the test system is MCF-7 breast cancer cells. Put plainly: MTT assay, antiproliferative activity, MCF-7. The settings on record: Homo sapiens, MCF7, 48 h, read-out: Cytotoxicity IC50 MCF7. Format: cell-based. The method, then:
(§1) The cancer cell growth inhibitory activity of the synthesized compound was tested against three human cancer cell lines, namely, breast cancer (MCF-7), colon cancer (HCT116) and lung cancer (A549), as well as non-tumorigenic human lung cell line (WI38) to estimate the selectivity for tumor cells.
(§2) Anti-proliferative activity in compounds 4a–q were tested in three cancerous cell lines (MCF-7 breast cancer cells, A549 lung carcinoma, HCT human colon cancer cells) and in WI-38 human lung fibroblast cells. Cells were plated at a density of 1.2–1.8 × 10,000 cells/well in a volume of 100 µL complete growth medium and were incubated at 37 °C for 24 h. Cells were then treated with serially diluted tested compound and incubated at 37 °C for 48 h. Twenty microliters of 3-(4,5-dimethylthiazol-2-yl)-2,5-diphenyltetrazolium bromide (MTT) (2.5 mg/mL) dissolved in PBS were added to the cells and cells were further incubated for 4 h at 37 °C. To dissolve formazan crystals, MTT solutions were completely removed and 100 μL DMSO was added. The absorbance was detected at 540 nm using a Spectramax 250 microplate reader (Molecular device, San Jose, CA, USA), and viability (%) was calculated as [optical density (OD) of treated group/OD of control group] × 100.
Background: Tetrazolium assays rely on reduction of a dye to a coloured formazan, in cell work by metabolically active cells.

For data set [2], the system named is HCT116 colon cancer cells. Description: MTT assay, antiproliferative activity, HCT116. The settings on record: Homo sapiens, HCT-116, 48 h, read-out: Cytotoxicity IC50 HCT116. Format: cell-based. Here is the method:
as §1, §2

In data set [3] the test system is A549 lung carcinoma cells. Put plainly: MTT assay, antiproliferative activity, A549. Type of data set: cell-based. The settings on record: Homo sapiens, 48 h, read-out: Cytotoxicity IC50 A549. Here is the method:
as §1, §2

The nature of data set [4]: MTT assay, toxicity on normal cells WI38. Format: cell-based, human. To be noted: WI-38 lung fibroblast cells (non-tumorigenic); MTT, 48 h, non-tumorigenic human lung cell line; read-out: Cytotoxicity IC50 WI38. The method, then: as §1, §2
Data set [5] relates to WI-38 human lung fibroblast cells. Description: MTT assay, toxicity on normal cells WI38. To be noted: WI38 versus cancer cells. Format: cell-based. Here is the method: as §1, §2
In data set [6] the test system is MCF-7 cells. Description: Annexin V-FITC apoptosis flow cytometry. Format: cell-based, human. The settings on record: 10 μm, 48 h. The method, then:
To detect the apoptotic potential of our compound of choice, 4e, an Annexin V-FITC Apoptosis Detection Kit (BioVision, Mountain View, CA, USA) was used based on the manufacturer’s protocol using a dose of 10 μm for 48 h.
Background: A flow cytometer gives signals particle by particle.

Data set [7] deals with MCF-7 cells. Put plainly: Cell cycle analysis, propidium iodide flow cytometry. Format: cell-based, human. To be noted: 10 µm, 48 h, control 34.72%. The method, then:
To evaluate if the antiproliferative effect of 4e was due to the disturbance of the cell cycle, cells were treated with 10 µm for 48 h. […] Therefore, it is possible that the antiproliferative effect of 4e is due to S-phase cell cycle arrest.
To detect cell cycle status after treating cells with 4e, 1 × 10^6 cells were cultured in six-well plates for twenty-four hours per cell and were then treated with 10 μm of 4e for 48 h. Cells were then washed with phosphate-buffered saline. Cells were then fixed with 70% of cold ethanol and kept at 4 °C overnight. Cell analysis was then analyzed following the manifacorere protocol, using a Propidium Iodide Flow Cytometry Kit for Cell Cycle Analysis (Abcam, Waltham, MA, USA).

The subject of a further data set is MCF-7, A549, and HCT. Description: MTT assay, cytotoxicity over the three cancer cell lines. To be noted: Homo sapiens, average over MCF-7, HCT116, A549, 48 h. Type of data set: cell-based. The method, then: The title compounds 4a–q were subjected to MTT assay to determine their cytotoxicity, and their in vitro antiproliferative activity was examined as well. The cancer cell growth inhibitory activity of the synthesized compound was tested against three human cancer cell lines, namely, breast cancer (MCF-7), colon cancer (HCT116) and lung cancer (A549), as well as non-tumorigenic human lung cell line (WI38) to estimate the selectivity for tumor cells. Staurosporine was used as a reference drug.
as §2, with “To dissolve formazan crystals, MTT solutions were completely removed and 100 μL DMSO was added.” left out

`NN(Cc1ccc(Cl)cc1)C(=O)c1cc2ccccc2[nH]1` [4a, N-(4-Chlorobenzyl)-1H-indole-2-carbohydrazide] came in with a melting point of 233 °C. In addition, the IC50 in [1] stood at 21.7 ± 1.04 µM. The IC50 in data set [2] is 41.3 ± 1.98 µM. The half-maximal inhibitory concentration (IC50) in [3] turned out to be 5.9 ± 0.32 µM. Moreover, the IC50 at 48 h in data set [4] was 66.2 ± 3.75 µM.

As for `COc1ccc2[nH]c(C(=O)N(N)Cc3ccc(Cl)cc3)cc2c1` [4b, N-(4-Chlorobenzyl)-5-methoxy-1H-indole-2-carbohydrazide], the melting point came to 225 °C. The IC50 in [1] stood at 11.5 ± 0.55 µM. The IC50 in data set [2] was 190 ± 9.12 µM. For the same compound, the IC50 in data set [3] was 49.2 ± 2.68 µM. The IC50 at 48 h in data set [4] amounted to 163 ± 9.25 µM.

In turn, `NN(Cc1ccccc1)C(=O)c1cc2ccccc2[nH]1` [4c, N-Benzyl-1H-indole-2-carbohydrazide] gave a melting point of 237 °C. Further, in [1], the IC50 turned out to be 62 ± 2.97 µM. In addition, the IC50 in data set [2] stood at 32.5 ± 1.56 µM. Further, the IC50 in [3] worked out at 25.3 ± 1.38 µM. Moreover, the IC50 at 48 h in data set [4] was determined as 50.4 ± 2.86 µM.

Turning to `COc1ccc2[nH]c(C(=O)N(N)Cc3ccccc3)cc2c1` [4d, N-Benzyl-5-methoxy-1H-indole-2-carbohydrazide], the melting point worked out at 210 °C. Also, the IC50 in data set [1] is 3.23 ± 0.16 µM. For the same compound, the IC50 in [2] is 66.2 ± 3.17 µM. In [3], the IC50 was 5.69 ± 0.31 µM. Also, the IC50 at 48 h in data set [4] turned out to be 95.2 ± 5.39 µM.

As for `NN(Cc1cc(C(F)(F)F)cc(C(F)(F)F)c1)C(=O)c1cc2ccccc2[nH]1` [4e, N-(3,5-Bis(trifluoromethyl)benzyl)-1H-indole-2-carbohydrazide], the melting point was 204 °C. Also, the half-inhibitory concentration (IC50) in data set [1] was determined as 0.57 ± 0.03 µM. For the same compound, in data set [2], the IC50 worked out at 1.95 ± 0.09 µM. Further, the half-maximal inhibitory concentration (IC50) in data set [3] is 3.49 ± 0.19 µM. In data set [4], the IC50 at 48 h is 87.2 ± 4.94 µM. Also, the “selectivity against non-tumorigenic cell line (WI38) (in words)” value in [5] is recorded as “exhibited selectivity toward cancer cells”. In addition, the “Annexin-V and 7-AAD positive cell populations” value with MCF-7 cells [6] is given as “significant increase”. For the same compound, the “cell population in the S phase” value in the data set on MCF-7 cells [7] is listed as 48.72%. The IC50 with MCF-7, A549, and HCT turned out to be 2 µM.

`COc1ccc2[nH]c(C(=O)N(N)Cc3cc(C(F)(F)F)cc(C(F)(F)F)c3)cc2c1` [4f, N-(3,5-Bis(trifluoromethyl)benzyl)-5-methoxy-1H-indole-2-carbohydrazide] returned a melting point of 195 °C. Besides, in data set [1], the IC50 stood at 58.1 ± 2.78 µM. The IC50 in data set [2] was found to be 9.79 ± 0.47 µM. Further, the IC50 in data set [3] stood at 8.33 ± 0.45 µM. For the same compound, the IC50 at 48 h in data set [4] came to 24.4 ± 1.38 µM.

`NN(Cc1ccc(F)cc1)C(=O)c1cc2ccccc2[nH]1` [4g, N-(4-Fluorobenzyl)-1H-indole-2-carbohydrazide] gave a melting point of 209 °C. Also, the IC50 in data set [1] is 8.31 ± 0.4 µM. For the same compound, in data set [2], the IC50 was found to be 12.3 ± 0.59 µM. In addition, the IC50 in data set [3] worked out at 17 ± 0.93 µM. Besides, the IC50 at 48 h in data set [4] was 117 ± 6.65 µM.

`COc1ccc2[nH]c(C(=O)N(N)Cc3ccc(F)cc3)cc2c1` [4h, N-(4-Fluorobenzyl)-5-methoxy-1H-indole-2-carbohydrazide] yielded a melting point of 175 °C. Moreover, the IC50 in data set [1] stood at 13.1 ± 0.63 µM. For the same compound, the IC50 in [2] was 207 ± 9.94 µM. Also, the IC50 in data set [3] stood at 23.9 ± 1.3 µM. For the same compound, the IC50 at 48 h in data set [4] was 64.1 ± 3.63 µM.

Regarding `NN(Cc1ccc(C(F)(F)F)cc1)C(=O)c1cc2ccccc2[nH]1` [4i, N-(4-(Trifluoromethyl)benzyl)-1H-indole-2-carbohydrazide], the melting point stood at 190 °C. The IC50 in [1] amounted to 23.9 ± 1.15 µM. Further, the IC50 in data set [2] came out at 52.2 ± 2.5 µM. Further, the IC50 in [3] was 11.6 ± 0.63 µM. The IC50 at 48 h in [4] was 25.3 ± 1.43 µM.

Regarding `COc1ccc2[nH]c(C(=O)N(N)Cc3ccc(C(F)(F)F)cc3)cc2c1` [4j, N-(4-(Trifluoromethyl)benzyl)-5-methoxy-1H-indole-2-carbohydrazide], the melting point was found to be 220 °C. Moreover, in data set [1], the IC50 is 3.27 ± 0.16 µM. The IC50 in data set [2] came out at 9.16 ± 0.44 µM. In addition, in data set [3], the concentration for half-maximal inhibition (IC50) was 6.78 ± 0.37 µM. The IC50 at 48 h in [4] is 97.9 ± 5.54 µM.

As to `N#Cc1ccc(CN(N)C(=O)c2cc3ccccc3[nH]2)cc1` [4k, N-(4-Cyanobenzyl)-1H-indole-2-carbohydrazide], the melting point was 202 °C. Besides, the half-inhibitory concentration (IC50) in data set [1] was 9.21 ± 0.44 µM. Moreover, in data set [2], the IC50 worked out at 39.1 ± 1.88 µM. Further, the IC50 in data set [3] is 2.65 ± 0.14 µM. In addition, in [4], the half-inhibitory concentration (IC50) at 48 h was determined as 30.8 ± 1.74 µM.

In turn, `COc1ccc2[nH]c(C(=O)N(N)Cc3ccc(C#N)cc3)cc2c1` [4l, N-(4-Cyanobenzyl)-5-methoxy-1H-indole-2-carbohydrazide] yielded a melting point of 248 °C. The IC50 in data set [1] amounted to 81.4 ± 3.9 µM. Besides, the concentration for half-maximal inhibition (IC50) in data set [2] was found to be 5.02 ± 0.24 µM. The IC50 in data set [3] worked out at 26.6 ± 1.45 µM. The half-maximal inhibitory concentration (IC50) at 48 h in data set [4] is 18.5 ± 1.05 µM.

Compound `NN(Cc1ccc(Br)cc1)C(=O)c1cc2ccccc2[nH]1` [4m, N-(4-Bromobenzyl)-1H-indole-2-carbohydrazide] gave a melting point of 238 °C. In addition, the IC50 in data set [1] stood at 62.9 ± 3.01 µM. For the same compound, in data set [2], the IC50 worked out at 17.5 ± 0.84 µM. Also, the IC50 in data set [3] was 12.9 ± 0.7 µM. The IC50 at 48 h in data set [4] was determined as 46.1 ± 2.61 µM.

Take `COc1ccc2[nH]c(C(=O)N(N)Cc3ccc(Br)cc3)cc2c1` [4n, N-(4-Bromobenzyl)-5-methoxy-1H-indole-2-carbohydrazide]: the melting point came out at 228 °C. In addition, in data set [1], the IC50 was 141 ± 6.74 µM. Moreover, the IC50 in data set [2] was 61 ± 2.92 µM. In [3], the IC50 was determined as 16.7 ± 0.91 µM. Further, the IC50 at 48 h in data set [4] stood at 252 ± 14.3 µM.

The compound `NN(Cc1ccc([N+](=O)[O-])cc1)C(=O)c1cc2ccccc2[nH]1` [4o, N-(4-Nitrobenzyl)-1H-indole-2-carbohydrazide] showed a melting point of 223 °C. The IC50 in data set [1] stood at 3.66 ± 0.18 µM. Besides, the half-maximal inhibitory concentration (IC50) in [2] was determined as 2.41 ± 0.12 µM. Also, the IC50 in data set [3] was 22.3 ± 1.21 µM. Moreover, in data set [4], the IC50 at 48 h came to 86 ± 4.87 µM.

`COc1ccc2[nH]c(C(=O)N(N)Cc3ccc([N+](=O)[O-])cc3)cc2c1` [4p, N-(4-Nitrobenzyl)-5-methoxy-1H-indole-2-carbohydrazide]: the melting point worked out at 213 °C. In data set [1], the IC50 was 7.01 ± 0.34 µM. For the same compound, in [2], the IC50 came out at 19.4 ± 0.93 µM. In data set [3], the IC50 was found to be 3.02 ± 0.16 µM. Besides, the IC50 at 48 h in data set [4] stood at 17.4 ± 0.99 µM.

In turn, `COc1ccc2[nH]c(C(=O)N(N)Cc3ccc(C)cc3)cc2c1` [4q, N-(4-Methylbenzyl)-5-methoxy-1H-indole-2-carbohydrazide] returned a melting point of 166 °C. In addition, in data set [1], the IC50 turned out to be 1.01 ± 0.05 µM. In data set [2], the IC50 was found to be 6.45 ± 0.31 µM. Besides, in [3], the IC50 amounted to 2.4 ± 0.13 µM. Further, the IC50 at 48 h in [4] was 56.2 ± 3.18 µM. For the same compound, 3.28 ± 2.3 µM corresponded to half-maximal inhibition in the data set with MCF-7, A549, and HCT (IC50).
